Assay results from patent publication US20040253256A1, “Biological compositions and methods for treatment of prostate cancer” (priority 2003, published 2004).
Read-outs that look alike come from different tables or passages of the source.

What was measured:
[1] = tested on: human prostate cancer; conditions: 31st day from tumor inoculation; 30 consecutive days; AY/NY 0.3 ml oral once per day, CTX 30 mg/kg/day s.c.
Excerpt: (§1) The animals used to generate the prostate cancer cells for the experiments were male nude mouse (obtainable from the Chinese Academy of Military Medical Sciences, Beijing, China) with an average weight of about 15 to 18 gram. Fresh prostate tumor cells (obtainable from the Cancer Institute, Chinese Academy of Medical Sciences, Beijing, China) were divided into sections of size 1-2 mm^3 and immediately stored in […] suspension after removal from the human patient.
The mouse were starved for 24 hours before the surgery. The animals were generally anaesthetized. The barbiturates was first diluted in saline and then injected at 0.3 to 0.4 ml per animal, or 30 mg per kg body weight, into the abdomen of the mice. Under sterile conditions, a 1 cm long opening in the body cavity was cut along the right rib of the mice for engraftment of the tumor. About 10^6 units of tumor cells (about 2 mg tumor pieces per ml culture medium) were transplanted. Afterwards, the opening was sutured and the mice were put back into the cage. The animals were allowed to grow for three to five weeks or when the tumor grows to about 1 to 2 cm^3 in size. […]
The mice received the biological compositions, untreated yeast cells, CTX or saline on the same day as the tumor cells were transplanted. […] The weight of the mice and the weight of the tumor were determined by standard techniques.

[2] = tested on: human prostate cancer; conditions: for Number of live animals remaining in the groups after 30 days of treatment: 30 mice per group, 2CTX 45 mg/kg/day s.c.
Excerpt: as §1
The mouse were starved for 24 hours before the surgery. The animals were generally anaesthetized. The barbiturates was first diluted in saline and then injected at 0.3 to 0.4 ml per animal, or 30 mg per kg body weight, into the abdomen of the mice. Under sterile conditions, a 1 cm long opening in the body cavity was cut along the right rib of the mice for engraftment of the tumor. About 10^6 units of tumor cells (about 2 mg tumor pieces per ml culture medium) were transplanted. Afterwards, the opening was sutured and the mice were put back into the cage. The animals were allowed to grow for three to five weeks or when the tumor grows to about 1 to 2 cm^3 in size. […] The tumor was removed from a donor rat and minced aseptically in 4 ml of Hank's solution to form a cell suspension. About 10^6 units of tumor cells (about 0.2 ml cell suspension) were transplanted into a healthy batch of nude mice.
The survival time of mice after tumor injection and treatment was studied.
The biological composition comprising 10^8 cells per ml of activated and conditioned yeast cells of the strain Saccharomyces carlsbergensis Hansen strain AS2.440 was prepared by the methods described in Section 5.1 and subsections therein
The animals were prepared in a similar manner as described in Section 6.1.
The mice injected with tumor cells were kept for 2 weeks and then were divided into 4 experimental groups of ten mice per group and one control group. The four experimental groups were triplicated (i.e., using a total of 120 mice in the experimental groups). In group 2AY, the mice received 0.5 ml of the biological composition once per day. In group 2NY, the mice received 0.5 ml of the untreated yeast cells once per day. In group 2CTX, the mice were injected subcutaneously with 45 mg of cyclophosphamide (CTX) per kg body weight per day. In group 2CK1, the mice received 0.5 ml of physiological saline once per day.
The mice received the biological compositions, untreated yeast cells, CTX or saline on the same day as the tumor cells were transplanted. The mice in group 2CK2 also started receiving saline on the same day as the other four groups. The biological compositions, untreated yeast cells and saline were administered orally by a feeding tube and the CTX by subcutaneous injection for 30 consecutive days. The mice were observed over 6 months from the day of tumor inoculation and survival was recorded. The weight of the mice and the weight of the tumor were determined by standard techniques.

[3] = tested on: human prostate cancer; assay: Example 6: tumor growth in nude mouse model of human prostate cancer (thiotepa comparator); assay type: in vivo; conditions: 31st day from tumor inoculation; 30 consecutive days; AY/NY 0.3 ml oral once per day, TSPA 1.5 mg/kg/day i.v.
Procedure: The human prostate cancer sample was carefully selected before, during, and after surgery in order to ensure transplant occurred at the equivalent position in the mouse. The prostate cancer sample was obtained from patients who have not received any radiation, chemotherapy, or immune enhancement treatment.
(§2) The animals were generally anaesthetized.
In group TSPA, the mice were injected intravenously with 1.5 mg of thiotepa (TSPA) per kg body weight per day.

[4] = tested on: human prostate cancer; assay: Example 7: survival time in nude mouse model of human prostate cancer (thiotepa comparator); assay type: in vivo; conditions: for Number of live animals remaining in the groups after 30 days of treatment: 30 mice per group
Procedure: as §2
In group 2TSPA, the mice were injected intravenously with 2.2 mg of thiotepa (TSPA) per kg body weight per day.

[5] = mice that survived the 6 months observation, 2AY/2NY 0.5 ml oral daily, 2TSPA 2.2 mg/kg/day i.v., 30 days
[6] = mice that survived the 6 months observation, 2AY/2NY 0.5 ml oral daily, CTX 45 mg/kg/day s.c., 30 days

For `O=P1(N(CCCl)CCCl)NCCCO1` (stereo not drawn) [CTX, cyclophosphamide], the “mean weight of mice and standard deviation” value [1] was 16.7 ± 1.7 g, the “mean weight of tumor nodules and standard deviation” value [1] was 3.3 ± 1.7 g and the “Number of live animals remaining in the groups after 30 days of treatment” value (“Number of live animals remaining” for short) ([2]; 0 month after cessation of treatment, 2AY/2NY 0.5 ml oral daily) was 30. The “Number of live animals remaining” value ([2]; 1 month after cessation of treatment, 2AY/2NY 0.5 ml oral daily) was 30, the “survival after six months from injection of tumor cells” value ([2]; 2NY 0.5 ml per day, 2CTX 45 mg/kg per day, 30 days) was “all died” and the “Number of live animals remaining” value ([2]; 2 months after cessation of treatment, 2AY/2NY 0.5 ml oral daily) was 30. For the same molecule, the “Number of live animals remaining” value ([2]; 3 months after cessation of treatment, 2AY/2NY 0.5 ml oral daily) was 27, the “Number of live animals remaining” value ([2]; 4 months after cessation of treatment, 2AY/2NY 0.5 ml oral daily) was 22 and the “Number of live animals remaining” value ([2]; 5 months after cessation of treatment, 2AY/2NY 0.5 ml oral daily) was 17. For the same molecule, the “Number of live animals remaining” value ([2]; 6 months after cessation of treatment, 2AY/2NY 0.5 ml oral daily) was 0.

For `S=P(N1CC1)(N1CC1)N1CC1` [TSPA, thiotepa], the “mean weight of mice and standard deviation” value [3] was 16.2 ± 1.7 g, the “mean weight of tumor nodules and standard deviation” value [3] was 2.4 ± 1.2 mg and the “Number of live animals remaining” value ([4]; 0 month after cessation of treatment, 2AY/2NY 0.5 ml oral daily, 2TSPA 2.2 mg/kg/day i.v.) was 30. For the same molecule, the “Number of live animals remaining” value ([4]; 1 month after cessation of treatment, 2AY/2NY 0.5 ml oral daily, 2TSPA 2.2 mg/kg/day i.v.) was 30, the “survival after six months from injection of tumor cells” value ([4]; 2NY 0.5 ml per day, 2TSPA 2.2 mg/kg per day, 30 days) was “all died” and the “Number of live animals remaining” value ([4]; 2 months after cessation of treatment, 2AY/2NY 0.5 ml oral daily, 2TSPA 2.2 mg/kg/day i.v.) was 30. For the same molecule, the “Number of live animals remaining” value ([4]; 3 months after cessation of treatment, 2AY/2NY 0.5 ml oral daily, 2TSPA 2.2 mg/kg/day i.v.) was 27, the “Number of live animals remaining” value ([4]; 4 months after cessation of treatment, 2AY/2NY 0.5 ml oral daily, 2TSPA 2.2 mg/kg/day i.v.) was 17 and the “Number of live animals remaining” value ([4]; 5 months after cessation of treatment, 2AY/2NY 0.5 ml oral daily, 2TSPA 2.2 mg/kg/day i.v.) was 5. The “Number of live animals remaining” value ([4]; 6 months after cessation of treatment, 2AY/2NY 0.5 ml oral daily, 2TSPA 2.2 mg/kg/day i.v.) was 0, the “mean weight of mice and standard deviation” value [4, 5] was “all animals dead” and the “mean weight of tumor nodules and standard deviation” value [4, 5] was “all animals dead”. For the same molecule, the “mean weight of mice and standard deviation” value [2, 6] was “all animals dead” and the “mean weight of tumor nodules and standard deviation” value [2, 6] was “all animals dead”.
